Assay results as given in ChEMBL document CHEMBL5154944, “Discovery of Aryloxyphenyl-Heptapeptide Hybrids as Potent and Selective Matrix Metalloproteinase-2 Inhibitors for the Treatment of Idiopathic Pulmonary Fibrosis” (J Med Chem, 2022).
pIC50: −log10 of the molar value. Activity calls are given as the source filed them. The calls are words filed in the database; no cut-off is given here. Non-standard residues stand in square brackets, D forms with d. Residues, ends and D or L forms follow the SMILES beside them. *: point of attachment. Benzoyl(4-OPh(4-CONH2)) = NC(=O)c1ccc(Oc2ccc(C(=O)*)cc2)cc1; NMeE = CN[C@@H](CCC(=O)O)C(=O)O; β3hP = O=C(O)C[C@@H]1CCCN1; Dab = NCC[C@H](N)C(=O)O; Ava = NCCCCC(=O)O

What was measured:
[1] = molecular target: T1, Interstitial collagenase (Homo sapiens, UniProt P03956); experiment: Inhibition of recombinant human MMP1 using MOCAc-Lys-Pro-Leu-Gly-Leu-A2pr(Dnp)-Ala-Arg-NH2 as substrate preincubated for 15 mins followed by substrate addition by fluroscence based assay
T1 sequence (P03956 whole entry): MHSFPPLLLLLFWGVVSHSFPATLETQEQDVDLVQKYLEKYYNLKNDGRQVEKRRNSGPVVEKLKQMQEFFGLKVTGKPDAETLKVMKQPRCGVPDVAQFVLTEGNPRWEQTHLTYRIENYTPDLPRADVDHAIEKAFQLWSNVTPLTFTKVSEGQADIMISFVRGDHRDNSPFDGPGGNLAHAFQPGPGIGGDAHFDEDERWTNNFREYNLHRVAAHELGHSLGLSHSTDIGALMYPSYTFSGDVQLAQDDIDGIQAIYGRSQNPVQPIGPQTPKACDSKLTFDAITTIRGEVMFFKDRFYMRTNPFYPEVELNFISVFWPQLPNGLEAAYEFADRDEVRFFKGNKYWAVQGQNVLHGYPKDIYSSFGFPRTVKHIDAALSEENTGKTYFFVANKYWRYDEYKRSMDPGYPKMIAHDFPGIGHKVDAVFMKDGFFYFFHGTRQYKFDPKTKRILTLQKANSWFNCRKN

[2] = Metabolic stability in human hepatocytes assessed as parent compound remaining measured after 1 hr by LC-MS/MS analysis; format: ADME, cell-based, Hepatocyte; conditions: read-out: Stability
[3] = molecular target: CYP3A4 (Homo sapiens, UniProt P08684); experiment: Inhibition of CYP3A4 in human liver microsomes at 10 uM using midazolam as substrate preincubated for 5 mins followed by addition of NADPH measured after 5 mins by LC/MS/MS analysis relative to control; format: ADME, Microsome; conditions: probe midazolam
[4] = physchem; conditions: phosphate buffer, pH 9
[5] = tested on: HepG2; experiment: Cytotoxicity against human HepG2 cells assessed as reduction in cell viability at 10 uM after 48 hrs by CCK8 assay; format: functional
[6] = Protein binding in human serum assessed as free fraction at 10 ug/ml incubated for 6 hrs by equilibrium dialysis based LC-MS/MS assay; format: ADME, cell-free; conditions: at 10 µg/mL
[7] = Solubility of the compound in acetate buffer at pH 4.0 by HPLC analysis; format: physicochemical
[8] = Solubility of the compound in phosphate buffer at pH 7.4 by HPLC analysis; format: physicochemical
[9] = Metabolic stability in rat hepatocytes assessed as parent compound remaining incubated for 1 hr by LC-MS/MS; format: ADME, cell-based, Hepatocyte; conditions: read-out: Stability
[10] = molecular target: CYP2D6 (Homo sapiens, UniProt P10635); experiment: Inhibition of CYP2D6 in human liver microsomes at 10 uM using bufuralol as substrate preincubated for 5 mins followed by addition of NADPH measured after 10 mins by LC/MS/MS analysis relative to control; format: ADME, Microsome; conditions: probe bufuralol, time 15 min
[11] = molecular target: Matrix metalloproteinase-9 (Homo sapiens, UniProt P14780)
[12] = tested on: HepG2; experiment: Cytotoxicity against human HepG2 cells assessed as reduction in cell viability at 50 uM after 48 hrs by CCK8 assay; format: functional
[13] = tested on: Mus musculus; experiment: Antifibrotic activity in C57BL/6N mouse model of bleomycin-induced idiopathic pulmonary fibrosis assessed as reduction of total collagen content at 0.03 mg/kg/day, sc via osmotic pumps dosed for 14 days; format: functional, organism-based; conditions: time 14.0 day
[14] = Solubility of the compound in phosphate buffer at pH 9 by HPLC analysis; format: physicochemical
[15] = physchem; conditions: phosphate buffer, pH 7.4
[16] = molecular target: Stromelysin-1 (Homo sapiens, UniProt P08254); experiment: Inhibition of recombinant human MMP3 using MOCAc-Lys-Pro-Leu-Gly-Leu-A2pr(Dnp)-[…] as substrate preincubated for 15 mins followed by substrate addition by fluroscence based assay
[17] = molecular target: Neutrophil collagenase (Homo sapiens, UniProt P22894)
[18] = Clearance in fasted Sprague-Dawley rat at 1 mg/kg, iv by LC-MS/MS analysis; format: ADME, organism-based; conditions: in vivo
[19] = Protein binding in mouse serum assessed as free fraction at 10 ug/ml incubated for 6 hrs by equilibrium dialysis based LC-MS/MS assay; format: ADME, cell-free; conditions: at 10 µg/mL
[20] = Free drug concentration in C57BL/6N mouse plasma at 0.03 mg/kg/day, sc via osmotic pumps dosed for 14 days; format: ADME, organism-based; conditions: in vivo, 336 h, time 14 day
[21] = Chemical stability of the compound in acetate buffer at pH 4.0 assessed as residual rate incubated for 2 weeks by HPLC analysis; format: physicochemical; conditions: read-out: Stability
[22] = Volume of distribution at steady state in fasted Sprague-Dawley rat at 1 mg/kg, iv by LC-MS/MS analysis; format: ADME, organism-based; conditions: in vivo, read-out: Vdss
[23] = molecular target: Voltage-gated inwardly rectifying potassium channel KCNH2 (Homo sapiens, UniProt Q12809); experiment: Inhibition of human ERG expressed in CHO cells by Qpatch-clamp method; format: toxicity, cell-based
[24] = physchem; conditions: buffer, pH 7.4
[25] = tested on: Mus musculus; experiment: Antifibrotic activity in C57BL/6N mouse model of bleomycin-induced idiopathic pulmonary fibrosis assessed as reduction of total collagen content at 0.03 to 1 mg/kg/day, sc via osmotic pumps dosed for 14 days; format: functional, organism-based; conditions: dose 0.03-1 mg/kg/day, time 14.0 day
[26] = molecular target: CYP2C19 (Homo sapiens, UniProt P33261); experiment: Inhibition of CYP2C19 in human liver microsomes at 10 uM using mephenytoin as substrate preincubated for 5 mins followed by addition of NADPH measured after 10 mins by LC/MS/MS analysis relative to control; format: ADME, Microsome; conditions: probe mephenytoin, time 15 min
[27] = Half life in fasted Sprague-Dawley rat at 1 mg/kg, iv by LC-MS/MS analysis; format: ADME, organism-based; conditions: in vivo
[28] = molecular target: CYP2C9 (Homo sapiens, UniProt P11712); experiment: Inhibition of CYP2C9 in human liver microsomes at 10 uM using diclofenac as substrate preincubated for 5 mins followed by addition of NADPH measured after 5 mins by LC/MS/MS analysis relative to control; format: ADME, Microsome; conditions: probe diclofenac, time 10 min
[29] = molecular target: T2, Matrilysin (Homo sapiens, UniProt P09237)
T2 sequence (P09237 whole entry): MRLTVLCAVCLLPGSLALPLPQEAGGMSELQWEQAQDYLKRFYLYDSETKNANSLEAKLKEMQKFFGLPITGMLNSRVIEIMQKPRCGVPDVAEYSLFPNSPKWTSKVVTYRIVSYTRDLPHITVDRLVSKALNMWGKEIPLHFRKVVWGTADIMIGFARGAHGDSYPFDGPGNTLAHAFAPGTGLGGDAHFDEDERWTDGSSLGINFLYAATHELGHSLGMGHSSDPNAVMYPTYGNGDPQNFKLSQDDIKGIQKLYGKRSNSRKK

[30] = Metabolic stability in human serum assessed as parent compound remaining incubated for 6 hrs by LC-MS/MS analysis; format: ADME, cell-free; conditions: read-out: Stability
[31] = molecular target: CYP1A2 (Homo sapiens, UniProt P05177); experiment: Inhibition of CYP1A2 in human liver microsomes at 10 uM using phenacetin as substrate for 5 mins followed by NADPH addition and measured after 10 mins by LC/MS/MS analysis relative to control; format: ADME, Microsome; conditions: probe phenacetin, time 15 min
[32] = molecular target: Matrix metalloproteinase-14 (Homo sapiens, UniProt P50281); experiment: Inhibition of recombinant human MMP14 using MOCAc-Lys-Pro-Leu-Gly-Leu-A2pr(Dnp)-Ala-Arg-NH2 as substrate preincubated for 15 mins followed by substrate addition by fluroscence based assay
[33] = Half life in fasted Sprague-Dawley rat at 0.4 mg/kg, iv by LC-MS/MS analysis; format: ADME, organism-based; conditions: in vivo
[34] = Volume of distribution at steady state in fasted Sprague-Dawley rat at 0.4 mg/kg, iv by LC-MS/MS analysis; format: ADME, organism-based; conditions: in vivo, read-out: Vdss
[35] = molecular target: Collagenase 3 (Homo sapiens, UniProt P45452)
[36] = molecular target: 72 kDa type IV collagenase (Homo sapiens, UniProt P08253)
[37] = Clearance in fasted Sprague-Dawley rat at 0.4 mg/kg, iv by LC-MS/MS analysis; format: ADME, organism-based; conditions: in vivo

Chain of CYP2C9 (P11712 whole entry): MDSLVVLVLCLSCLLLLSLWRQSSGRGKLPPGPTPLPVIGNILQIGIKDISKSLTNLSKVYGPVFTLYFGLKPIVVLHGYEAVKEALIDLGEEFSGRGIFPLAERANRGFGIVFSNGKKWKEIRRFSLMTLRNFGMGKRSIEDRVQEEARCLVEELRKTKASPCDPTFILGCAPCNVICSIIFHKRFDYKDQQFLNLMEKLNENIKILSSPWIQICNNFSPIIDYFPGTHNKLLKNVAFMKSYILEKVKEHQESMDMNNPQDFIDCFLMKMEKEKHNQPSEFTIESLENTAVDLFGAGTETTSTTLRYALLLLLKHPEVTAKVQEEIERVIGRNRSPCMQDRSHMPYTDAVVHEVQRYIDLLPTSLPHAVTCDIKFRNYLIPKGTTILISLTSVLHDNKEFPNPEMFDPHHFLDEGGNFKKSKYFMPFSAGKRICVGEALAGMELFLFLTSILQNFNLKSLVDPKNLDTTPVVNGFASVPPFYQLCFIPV
Chain of CYP3A4 (P08684 whole entry): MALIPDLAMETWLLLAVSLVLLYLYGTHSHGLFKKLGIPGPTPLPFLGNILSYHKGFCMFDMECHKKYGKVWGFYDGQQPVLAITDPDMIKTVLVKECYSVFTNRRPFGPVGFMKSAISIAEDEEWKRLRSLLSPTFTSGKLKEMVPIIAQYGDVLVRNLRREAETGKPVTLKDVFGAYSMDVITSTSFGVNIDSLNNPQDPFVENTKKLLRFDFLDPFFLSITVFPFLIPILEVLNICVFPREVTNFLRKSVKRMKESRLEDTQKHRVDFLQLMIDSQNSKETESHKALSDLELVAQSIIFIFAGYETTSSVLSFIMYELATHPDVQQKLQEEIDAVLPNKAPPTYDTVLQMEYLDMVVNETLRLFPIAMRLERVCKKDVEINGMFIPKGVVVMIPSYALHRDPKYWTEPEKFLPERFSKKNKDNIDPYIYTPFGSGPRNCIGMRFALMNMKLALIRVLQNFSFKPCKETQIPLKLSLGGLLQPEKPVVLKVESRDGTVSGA
Chain of CYP2D6 (P10635 whole entry): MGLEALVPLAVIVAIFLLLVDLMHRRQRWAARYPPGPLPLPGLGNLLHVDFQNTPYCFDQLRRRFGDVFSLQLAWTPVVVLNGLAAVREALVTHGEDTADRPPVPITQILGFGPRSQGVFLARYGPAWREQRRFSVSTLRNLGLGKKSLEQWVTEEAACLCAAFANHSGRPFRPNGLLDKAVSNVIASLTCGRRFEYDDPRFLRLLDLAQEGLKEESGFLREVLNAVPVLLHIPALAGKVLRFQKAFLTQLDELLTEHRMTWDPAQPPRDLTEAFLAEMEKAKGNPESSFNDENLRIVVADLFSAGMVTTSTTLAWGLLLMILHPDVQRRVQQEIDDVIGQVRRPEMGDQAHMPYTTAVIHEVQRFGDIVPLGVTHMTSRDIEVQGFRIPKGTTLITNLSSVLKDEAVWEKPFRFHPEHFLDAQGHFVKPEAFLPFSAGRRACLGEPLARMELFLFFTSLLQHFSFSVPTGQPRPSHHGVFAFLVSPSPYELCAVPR
Chain of Stromelysin-1 (P08254 whole entry): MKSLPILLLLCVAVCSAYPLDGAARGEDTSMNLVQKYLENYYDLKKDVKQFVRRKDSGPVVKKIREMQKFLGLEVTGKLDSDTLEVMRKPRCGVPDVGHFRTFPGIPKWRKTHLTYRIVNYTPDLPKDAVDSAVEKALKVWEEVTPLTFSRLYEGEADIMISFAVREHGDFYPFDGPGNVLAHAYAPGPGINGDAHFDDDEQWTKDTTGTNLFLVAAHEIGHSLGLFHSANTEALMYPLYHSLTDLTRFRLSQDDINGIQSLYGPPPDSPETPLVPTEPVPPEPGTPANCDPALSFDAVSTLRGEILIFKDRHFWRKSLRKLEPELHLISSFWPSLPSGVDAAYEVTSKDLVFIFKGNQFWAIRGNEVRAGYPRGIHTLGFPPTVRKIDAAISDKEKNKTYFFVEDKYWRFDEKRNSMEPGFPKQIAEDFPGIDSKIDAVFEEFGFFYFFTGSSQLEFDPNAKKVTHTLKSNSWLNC
Chain of Matrix metalloproteinase-9 (P14780 whole entry): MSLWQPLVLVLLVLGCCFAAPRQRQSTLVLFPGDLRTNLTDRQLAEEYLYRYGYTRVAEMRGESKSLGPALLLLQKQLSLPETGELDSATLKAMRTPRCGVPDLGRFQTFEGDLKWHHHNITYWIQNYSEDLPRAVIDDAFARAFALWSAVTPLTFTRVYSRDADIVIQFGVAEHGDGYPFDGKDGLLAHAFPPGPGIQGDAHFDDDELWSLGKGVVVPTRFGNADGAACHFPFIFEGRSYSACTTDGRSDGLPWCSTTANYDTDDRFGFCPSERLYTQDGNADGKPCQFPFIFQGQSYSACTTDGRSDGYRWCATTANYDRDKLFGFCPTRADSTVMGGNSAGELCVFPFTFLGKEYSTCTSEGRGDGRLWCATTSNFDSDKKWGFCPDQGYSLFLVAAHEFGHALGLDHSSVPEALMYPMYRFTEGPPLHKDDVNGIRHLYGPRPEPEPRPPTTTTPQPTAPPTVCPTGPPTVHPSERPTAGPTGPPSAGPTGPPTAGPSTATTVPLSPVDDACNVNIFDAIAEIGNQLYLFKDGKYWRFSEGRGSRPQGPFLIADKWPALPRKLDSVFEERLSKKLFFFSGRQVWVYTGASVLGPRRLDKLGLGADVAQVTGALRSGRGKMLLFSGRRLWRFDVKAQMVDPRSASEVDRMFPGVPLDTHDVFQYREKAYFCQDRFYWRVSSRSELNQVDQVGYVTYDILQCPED
Chain of Voltage-gated inwardly rectifying potassium channel KCNH2 (Q12809 whole entry): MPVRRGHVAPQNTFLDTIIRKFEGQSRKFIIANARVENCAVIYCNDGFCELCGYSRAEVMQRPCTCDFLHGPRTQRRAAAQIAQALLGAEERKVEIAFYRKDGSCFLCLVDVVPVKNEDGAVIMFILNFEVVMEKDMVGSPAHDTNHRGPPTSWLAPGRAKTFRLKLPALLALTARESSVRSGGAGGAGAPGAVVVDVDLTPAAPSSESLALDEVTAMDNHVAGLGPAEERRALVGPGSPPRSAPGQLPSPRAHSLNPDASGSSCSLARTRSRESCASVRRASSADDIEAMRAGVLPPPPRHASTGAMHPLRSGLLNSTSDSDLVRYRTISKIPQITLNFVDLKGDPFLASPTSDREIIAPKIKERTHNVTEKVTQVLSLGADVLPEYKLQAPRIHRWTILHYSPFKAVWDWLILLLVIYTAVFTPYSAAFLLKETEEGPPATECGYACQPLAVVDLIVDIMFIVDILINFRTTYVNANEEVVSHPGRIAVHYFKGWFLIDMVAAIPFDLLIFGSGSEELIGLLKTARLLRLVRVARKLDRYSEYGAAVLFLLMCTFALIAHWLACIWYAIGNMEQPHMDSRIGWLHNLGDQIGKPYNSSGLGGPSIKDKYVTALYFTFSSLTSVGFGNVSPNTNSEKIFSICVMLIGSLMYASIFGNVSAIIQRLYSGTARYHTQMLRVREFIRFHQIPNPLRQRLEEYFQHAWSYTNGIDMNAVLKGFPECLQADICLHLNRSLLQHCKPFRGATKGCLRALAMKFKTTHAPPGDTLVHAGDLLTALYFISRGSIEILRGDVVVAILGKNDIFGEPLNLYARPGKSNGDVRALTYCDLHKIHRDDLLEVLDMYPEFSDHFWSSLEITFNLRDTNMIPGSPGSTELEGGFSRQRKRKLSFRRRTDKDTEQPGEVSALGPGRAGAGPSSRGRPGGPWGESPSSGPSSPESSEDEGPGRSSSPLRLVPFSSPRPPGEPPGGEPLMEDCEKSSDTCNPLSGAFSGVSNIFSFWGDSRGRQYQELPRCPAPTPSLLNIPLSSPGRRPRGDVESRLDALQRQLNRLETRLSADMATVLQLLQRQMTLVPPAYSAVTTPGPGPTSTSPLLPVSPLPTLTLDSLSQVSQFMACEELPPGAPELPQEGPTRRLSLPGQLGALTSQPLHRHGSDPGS
Chain of CYP1A2 (P05177 whole entry): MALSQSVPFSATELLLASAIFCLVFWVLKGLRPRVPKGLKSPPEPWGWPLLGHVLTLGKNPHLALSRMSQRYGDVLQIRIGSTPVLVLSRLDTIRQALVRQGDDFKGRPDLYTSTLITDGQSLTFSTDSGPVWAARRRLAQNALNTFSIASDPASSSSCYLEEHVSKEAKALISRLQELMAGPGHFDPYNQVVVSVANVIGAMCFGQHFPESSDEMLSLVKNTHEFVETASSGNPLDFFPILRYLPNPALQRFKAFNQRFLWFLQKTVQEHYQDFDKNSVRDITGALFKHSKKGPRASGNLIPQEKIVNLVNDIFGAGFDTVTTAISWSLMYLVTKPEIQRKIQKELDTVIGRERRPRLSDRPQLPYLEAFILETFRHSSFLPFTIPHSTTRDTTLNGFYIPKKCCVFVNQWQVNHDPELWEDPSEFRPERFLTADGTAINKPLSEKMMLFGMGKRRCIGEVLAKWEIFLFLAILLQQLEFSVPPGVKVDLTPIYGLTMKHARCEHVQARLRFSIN
Chain of Neutrophil collagenase (P22894 whole entry): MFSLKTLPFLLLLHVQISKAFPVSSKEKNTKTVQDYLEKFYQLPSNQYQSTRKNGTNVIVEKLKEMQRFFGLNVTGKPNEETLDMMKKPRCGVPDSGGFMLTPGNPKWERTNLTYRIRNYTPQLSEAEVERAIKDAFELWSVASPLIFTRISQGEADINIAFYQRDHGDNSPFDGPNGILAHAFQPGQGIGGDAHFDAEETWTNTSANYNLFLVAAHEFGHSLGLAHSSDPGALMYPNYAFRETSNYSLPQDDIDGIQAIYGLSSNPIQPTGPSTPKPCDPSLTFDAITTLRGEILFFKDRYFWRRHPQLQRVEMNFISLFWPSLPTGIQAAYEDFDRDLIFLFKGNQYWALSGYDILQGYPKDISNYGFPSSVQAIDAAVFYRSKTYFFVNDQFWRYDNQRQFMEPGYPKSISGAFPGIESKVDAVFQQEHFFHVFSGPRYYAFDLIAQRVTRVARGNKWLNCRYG

## CC(C)C[C@H](NC(=O)[C@H](CCN)NC(=O)[C@H](CC(=O)O)NC(=O)[C@H](CCC(=O)O)NC(=O)CCCCNC(=O)c1ccc(Oc2ccc(C(N)=O)cc2)cc1)C(=O)N(C)[C@@H](CCC(=O)O)C(=O)N1CCC[C@H]1CC(N)=O ({Benzoyl(4-OPh(4-CONH2))-Ava}-ED[Dab]L[NMeE][β3hP]-NH2)
[1]
  pIC50: < 5.00
[2]
  remaining at 1 h: 101%
[3]
  inhibition at 5 min, 10 µM: -2.4%
[4]
  remaining at 336 h: 95.4%
[5]
  Activity: 1.1%
[6]
  fraction unbound at 6 h, 10 ug/ml: 0.552
[7]
  solubility: > 18.2 mg/mL
[8]
  solubility: > 24.2 mg/mL
[9]
  remaining at 1 h, 1 µM: 98.2%
[10]
  inhibition at 10 min, 10 µM: -2.5%
[11]
  pIC50: < 5.07
[12]
  Activity: -0.9%
[13]
  Activity: Active
[14]
  solubility: > 167 mg/mL
[15]
  remaining at 336 h: 95.1%
[16]
  pIC50: < 5.00
[17]
  pIC50: 5.43
[18]
  clearance: 11.7 mL/min/kg
[19]
  fraction unbound at 6 h, 10 ug/ml: 0.518
[20]
  Cp(f): 0.48 nM
[21]
  remaining at 336 h: 88%
[22]
  Vd: 0.233 L/kg
[23]
  pIC50: < 4.00
[24]
  logD: -0.21
[25]
  Activity: Active
[26]
  inhibition at 10 min, 10 µM: -9.1%
[27]
  half-life: 14 min
[28]
  inhibition at 5 min, 10 µM: 1.6%
[29]
  pIC50: < 5.00
[30]
  remaining at 6 h: 110%
[31]
  inhibition at […], 10 µM: -4.2%
[32]
  pIC50: 5.65

## CC(C)C[C@H](NC(=O)[C@H](CCN)NC(=O)[C@H](CC(=O)O)NC(=O)[C@H](CC(N)=O)NC(=O)CCCCNC(=O)c1ccc(Oc2ccc(C(N)=O)cc2)cc1)C(=O)N(C)[C@@H](CCC(=O)O)C(=O)N1CCC[C@H]1CC(N)=O ({Benzoyl(4-OPh(4-CONH2))-Ava}-ND[Dab]L[NMeE][β3hP]-NH2)
[33]
  half-life: 16 min
[34]
  Vd: 0.267 L/kg
[4]
  remaining at 336 h: 78%
[9]
  remaining at 1 h, 1 µM: 101%
[35]
  pIC50: 7.24
[36]
  pIC50: 10.29
[15]
  remaining at 336 h: 89.4%
[21]
  remaining at 336 h: 95.8%
[37]
  clearance: 12 mL/min/kg
